Test results reported in patent publication US6787517B1 (priority 2000, dated 2004).

Tested on: digitonin-permeabilized bovine adrenochromaffin cells
Assay type: cell-based

botulinum toxin type A
inhibition of Ca2+-stimulated catecholamine release: inhibition
